Experimental data: paper PMC9780703, “Unconventional interactions of the TRPV4 ion channel with beta-adrenergic receptor ligands” (Life Science Alliance, 2022)
Where a name gives a salt, the structure may show the parent alone. Read-outs that look alike come from different tables or passages of the source.

How the values were obtained:
Type in all cases: cell-based
TRPV4 [1] = molecular target: T1, TRPV4 (Homo sapiens, UniProt Q9HBA0); experiment: outside-out patch clamp of HEK293 cells expressing hTRPV4, dose-response, single-channel recordings and site-directed mutagenesis (apparent KD from Hill fit)
T1 construct: full-length wild type, transiently transfected HEK293, outside-out patches

TRPV4 [2] = molecular target: T1, TRPV4; experiment: outside-out patch clamp of HEK293 cells expressing hTRPV4, activation dose-response (KD from Hill fit)
TRPV4 [3] = molecular target: T1, TRPV4; experiment: outside-out patch clamp of HEK293 cells expressing hTRPV4, % inhibition of GSK-activated current at […]
TRPV4 [4] = molecular target: T1, TRPV4; experiment: as above; remark: listed apart in the source
TRPV4 [5] = molecular target: T1, TRPV4; experiment: outside-out patch clamp of HEK293 cells expressing hTRPV4, inhibition of GSK-activated currents, dose-response (apparent KD from Hill fit)
TRPV4 [6] = molecular target: T1, TRPV4; experiment: outside-out patch clamp of HEK293 cells expressing hTRPV4, % inhibition of GSK-activated current at […]; remark: listed apart in the source
TRPV4 [7] = molecular target: T1, TRPV4; experiment: as above; remark: listed apart in the source
TRPV4 [8] = molecular target: T1, TRPV4; experiment: as above; remark: listed apart in the source

T1 sequence (Q9HBA0 whole entry): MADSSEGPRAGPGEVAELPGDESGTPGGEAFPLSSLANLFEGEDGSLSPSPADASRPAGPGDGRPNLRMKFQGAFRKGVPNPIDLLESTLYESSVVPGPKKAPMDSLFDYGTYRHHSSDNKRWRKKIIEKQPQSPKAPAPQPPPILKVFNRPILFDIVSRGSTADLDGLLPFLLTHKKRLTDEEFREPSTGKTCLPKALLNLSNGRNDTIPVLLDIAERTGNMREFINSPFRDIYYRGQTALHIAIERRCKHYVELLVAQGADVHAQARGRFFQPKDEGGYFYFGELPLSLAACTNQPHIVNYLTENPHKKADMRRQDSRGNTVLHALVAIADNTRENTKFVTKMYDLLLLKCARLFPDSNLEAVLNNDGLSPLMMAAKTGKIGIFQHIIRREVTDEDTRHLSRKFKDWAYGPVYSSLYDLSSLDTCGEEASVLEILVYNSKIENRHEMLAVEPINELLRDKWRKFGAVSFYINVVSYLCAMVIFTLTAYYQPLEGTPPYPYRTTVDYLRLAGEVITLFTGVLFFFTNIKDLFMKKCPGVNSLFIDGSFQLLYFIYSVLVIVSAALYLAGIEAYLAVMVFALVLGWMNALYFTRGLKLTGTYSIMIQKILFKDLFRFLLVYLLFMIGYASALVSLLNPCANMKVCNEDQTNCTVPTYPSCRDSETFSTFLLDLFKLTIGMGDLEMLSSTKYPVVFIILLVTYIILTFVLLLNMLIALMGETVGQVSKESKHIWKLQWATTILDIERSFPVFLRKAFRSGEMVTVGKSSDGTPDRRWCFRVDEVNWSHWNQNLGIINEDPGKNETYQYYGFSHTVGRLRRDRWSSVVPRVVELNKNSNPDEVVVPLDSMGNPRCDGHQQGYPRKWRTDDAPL

**Q.** For CC(C)(C)NCC(O)c1ccc(O)c(CO)c1 (racemic) [salbutamol, α1-[(tert-butylamino)methyl]-4-hydroxy-1,3-benzenedimethanol hemisulfate salt], which Kd (TRPV4 [1]) is on record?
**A.** 81.3 µM

**Q.** Which Kd (TRPV4 [2]) does the source give for CC(C)C[C@H](NC(=O)c1cc2ccccc2s1)C(=O)N1CCN(C(=O)[C@H](CO)NS(=O)(=O)c2ccc(Cl)cc2Cl)CC1 [GSK, GSK1016790A] here?
**A.** 0.101 µM

**Q.** How did the inhibition at 500 µM (TRPV4 [3]) turn out when CC(C)(C)NCC(O)c1cc(O)cc(O)c1 (centres unmarked) [terbutaline, 5-[2-[(1,1-dimethylethyl)amino]-1-hydroxyethyl]-1,3-benzenediol hemisulfate salt] was run?
**A.** 54.4%

**Q.** With CC(C)NCC(O)c1cc(O)cc(O)c1 (stereo not drawn) [metaproterenol, α-[(isopropylamino)methyl]-3,5-dihydroxybenzyl alcohol hemisulfate salt] as the compound, how does the inhibition at 500 µM (TRPV4 [4]) read?
**A.** 51.7%

**Q.** Cc1ccc(OC[C@H](O)[C@@H](C)NC(C)C)c2c1CCC2 (relative stereo) [ICI, [2R,3R]-rel-3-isopropylamino-1-[7-methylindan-4-yloxy]-butan-2-ol hydrochloride] was tested. Which Kd (TRPV4 [5]) did it give?
**A.** 3.9 µM

**Q.** CC(C)NCC(O)c1ccc(O)c(O)c1 (centres unmarked) [isoprenaline, 1-[3′,4′-dihydroxyphenyl]-2-isopropylaminoethanol hydrochloride] was tested. Which inhibition at 500 µM (TRPV4 [6]) did it give?
**A.** 51.6%

**Q.** For CC(C)(C)NC[C@H](O)c1ccc(O)c(CO)c1 [levalbuterol], which inhibition at 500 µM (TRPV4 [7]) is on record?
**A.** 42.6%

**Q.** With CC(C)(C)NCC(O)c1cc(Cl)c(N)c(Cl)c1 (stereo not drawn) [clenbuterol, 4-amino-α-[t-butylaminomethyl]-3,5-dichlorobenzyl alcohol hydrochloride] as the compound, how does the inhibition at 500 µM (TRPV4 [8]) read?
**A.** 71.7%
